Converted amounts (≈) assume the structure as drawn.
Experiments:
[1] = Inhibition of recombinant Plasmodium falciparum N-terminal His6-tagged GGPPS expressed in Escherichia coli expression system assessed as reduction in pyrophosphate release using GPP as substrate incubated for 30 mins followed by substrate addition by PPiLight detection reagent based luminescence assay
[2] = biological target: T1, Geranylgeranyl pyrophosphate synthase (Homo sapiens, UniProt O95749); assay: Inhibition of recombinant human N-terminal His6-tagged GGPPS assessed as reduction in pyrophosphate release using GPP as substrate upto 200 uM incubated for 30 mins followed by substrate addition by PPiLight detection reagent based luminescence assay; details: 0.5 h
T1 sequence (O95749 whole entry): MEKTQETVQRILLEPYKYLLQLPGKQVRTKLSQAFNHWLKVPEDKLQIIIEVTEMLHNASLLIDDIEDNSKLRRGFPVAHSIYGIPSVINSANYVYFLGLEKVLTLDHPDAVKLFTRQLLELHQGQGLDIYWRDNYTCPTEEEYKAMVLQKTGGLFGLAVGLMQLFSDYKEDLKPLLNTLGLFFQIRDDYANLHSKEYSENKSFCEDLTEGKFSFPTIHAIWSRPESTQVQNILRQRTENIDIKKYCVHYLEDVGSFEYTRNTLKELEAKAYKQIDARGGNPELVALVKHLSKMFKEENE

[3] = biological target: T2, Farnesyl pyrophosphate synthase (Homo sapiens, UniProt P14324); assay: Inhibition of recombinant human N-terminal His6-tagged FPPS assessed as reduction in pyrophosphate release using GPP as substrate upto 200 uM incubated for 30 mins followed by substrate addition by PPiLight detection reagent based luminescence assay; details: 0.5 h
T2 sequence (P14324 whole entry): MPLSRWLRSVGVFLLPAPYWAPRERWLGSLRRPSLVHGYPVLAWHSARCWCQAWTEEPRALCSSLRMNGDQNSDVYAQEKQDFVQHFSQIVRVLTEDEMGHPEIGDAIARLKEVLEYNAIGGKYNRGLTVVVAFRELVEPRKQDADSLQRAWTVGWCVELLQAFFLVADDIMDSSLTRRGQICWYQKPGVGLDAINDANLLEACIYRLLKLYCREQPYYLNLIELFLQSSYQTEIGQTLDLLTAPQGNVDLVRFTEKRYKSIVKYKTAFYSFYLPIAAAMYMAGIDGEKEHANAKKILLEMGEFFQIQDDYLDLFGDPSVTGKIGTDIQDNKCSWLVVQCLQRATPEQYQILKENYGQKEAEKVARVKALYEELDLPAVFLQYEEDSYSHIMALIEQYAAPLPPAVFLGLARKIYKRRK

[4] = Metabolic stability in mouse liver microsomes assessed as intrinsic clearance; format: ADME, Microsome; details: read-out: CLH
[5] = Kinetic solubility of compound; format: physicochemical; details: read-out: Kinetic_solubility
[6] = Lipophilicity, logD of the compound in octanol-buffer at pH 7.4 measured after 18 hrs under shaking condition by reverse phase HPLC-MS analysis; format: physicochemical
[7] = system: MDR1; assay: Efflux ratio of apparent permeability in pig LLC-PK1 cells expressing MDR1 measured upto 360 mins; format: ADME, cell-based, Sus scrofa
[8] = system: Plasmodium falciparum; assay: Antimalarial activity against Plasmodium falciparum infected in human RBC assessed as reduction in parasite growth measured after 72 hrs by flow cytometry analysis; format: functional, organism-based; details: Erythrocyte
[9] = Metabolic stability in human liver microsomes assessed as intrinsic clearance; format: ADME, Microsome; details: read-out: CLH
[10] = system: MDR1; assay: Apparent permeability in pig LLC-PK1 cells expressing MDR1 measured upto 360 mins; format: ADME, cell-based, Sus scrofa

| SMILES | IC50 [1] | inhibition (INH) [2] | inhibition (INH) [3] | microsomal CLint [4] | solubility kinetic [5] | logD at 18 h [6] | efflux ratio at 6 h [7] | IC50 [8] | microsomal CLint [9] | Papp at 6 h [10] |
| --- | --- | --- | --- | --- | --- | --- | --- | --- | --- | --- |
| CN(C)CCCNC(=O)c1cnc(-c2ccccc2)s1 | 6 µM | Not Active | Not Active | – | – | – | – | – | – | – |
| O=C(NCCCN1CCCCCC1)c1ncc(-c2ccccc2)o1 | 2.38 µM | Not Active | Not Active | – | – | – | – | – | – | – |
| O=C(CCCN1CCCCCC1)Nc1cnc(-c2ccccc2F)s1 | 0.95 µM | Not Active | Not Active | – | – | – | – | – | – | – |
| Cn1c(=O)c2cc(C(=O)NCCCN3CCCCCC3)sc2c2ccccc21 | 0.82 µM | Not Active | Not Active | 483 µL/min/mg | 69 µg/mL (≈ 174 µM) | 1.89 | 6.8 | 0.09 µM | < 1 µL/min/mg | 4.1 ×10⁻⁶ cm/s |
| CC1CCCN1CCCNC(=O)c1cnc(-c2ccccc2)s1 (stereo not drawn) | > 10 µM | Not Active | Not Active | – | – | – | – | – | – | – |
| O=C(CCCN1CCCCCC1)Nc1cnc(-c2ccc(F)cc2)s1 | 1.33 µM | Not Active | Not Active | 18 µL/min/mg | > 97 µg/mL | 1.93 | 1.1 | 0.037 µM | 29 µL/min/mg | 9.5 ×10⁻⁶ cm/s |
| O=C(NCCCN1CCOCC1)c1cnc(-c2ccccc2)s1 | 12 µM | Not Active | Not Active | – | – | – | – | – | – | – |
| O=C(NCCCN1CCCCCC1)c1cc(-c2ccccc2)ccn1 | 6.08 µM | Not Active | Not Active | – | – | – | – | – | – | – |
| O=C(NCCCN1CCCCCC1)c1nnc(-c2ccccc2)o1 | 8.12 µM | Not Active | Not Active | – | – | – | – | – | – | – |
| O=C(CCCN1CCCCC1)Nc1cnc(-c2ccc(F)cc2)s1 | 1.61 µM | Not Active | Not Active | 14 µL/min/mg | > 94 µg/mL | 1.81 | 1 | 0.073 µM | 15 µL/min/mg | 10.5 ×10⁻⁶ cm/s |
| O=C(CCCN1CCCCCC1)Nc1cnc(-c2ccc(F)c(F)c2)s1 | 1.05 µM | Not Active | Not Active | 10 µL/min/mg | > 94 µg/mL | 2.3 | 1.1 | 0.04 µM | 42 µL/min/mg | 5.2 ×10⁻⁶ cm/s |
| O=C(NCCCN1CCCCCC1)c1ccc(-c2ccccc2)s1 | 1.34 µM | Not Active | Not Active | – | – | – | – | – | – | – |
| O=C(NCCCN1CCCCCC1)c1ncc(-c2ccccc2)s1 | 0.96 µM | Not Active | Not Active | – | – | – | – | – | – | – |
| O=C(NCCCN1CCCCCC1)c1cc(-c2ccccc2)on1 | 1.8 µM | Not Active | Not Active | – | – | – | – | – | – | – |
| O=C(CCCN1CCCCCC1)Nc1nnc(-c2ccc(F)cc2)s1 | 1.8 µM | Not Active | Not Active | < 1 µL/min/mg | > 91 µg/mL | 1.97 | 0.9 | 0.072 µM | 39 µL/min/mg | 12.6 ×10⁻⁶ cm/s |
| Cc1nc(-c2ccccc2)sc1C(=O)NCCCN1CCCCCC1 | 3.79 µM | Not Active | Not Active | – | – | – | – | – | – | – |

| SMILES | IC50 [1] | inhibition (INH) [2] | inhibition (INH) [3] | microsomal CLint [4] | solubility kinetic [5] | logD at 18 h [6] | efflux ratio at 6 h [7] | IC50 [8] | microsomal CLint [9] | Papp at 6 h [10] |
| --- | --- | --- | --- | --- | --- | --- | --- | --- | --- | --- |
| CC1CCN(CCCNC(=O)c2cnc(-c3ccccc3)s2)C1 (stereo not drawn) | 3.15 µM | Not Active | Not Active | – | – | – | – | – | – | – |
| Cc1c(C(=O)NCCCN2CCCCCC2)noc1-c1ccccc1 | 2.03 µM | Not Active | Not Active | – | – | – | – | – | – | – |
| COc1cc(-c2ncc(NC(=O)CCCN3CCCCCC3)s2)ccc1F | 0.5 µM | Not Active | Not Active | – | – | – | – | – | – | – |
| O=C(NCCCN1CCCCC1)c1cnc(-c2ccccc2)s1 | 2.15 µM | Not Active | Not Active | – | – | – | – | – | – | – |
| O=C(NCCCN1CCCCCC1)c1cnc(-c2ccccc2)s1 | 0.8 µM | Not Active | Not Active | – | – | – | – | – | – | – |
| O=C(NCCCN1CCCCCC1)c1nnc(-c2ccccc2)s1 | 1.04 µM | Not Active | Not Active | – | – | – | – | – | – | – |
| O=C(NCCCN1CCC(F)CC1)c1cnc(-c2ccccc2)s1 | 2.79 µM | Not Active | Not Active | – | – | – | – | – | – | – |
| COC1CCN(CCCNC(=O)c2cnc(-c3ccccc3)s2)CC1 | 6.06 µM | Not Active | Not Active | – | – | – | – | – | – | – |
| O=C(NCCCN1CCCC1)c1cnc(-c2ccccc2)s1 | 3.1 µM | Not Active | Not Active | – | – | – | – | – | – | – |
| Cc1nc(C(=O)NCCCN2CCCCCC2)sc1-c1ccccc1 | 1.03 µM | Not Active | Not Active | – | – | – | – | – | – | – |
| O=C(CCCN1CCCCCC1)Nc1cnc(-c2ccc(F)cc2F)s1 | 0.93 µM | Not Active | Not Active | 24 µL/min/mg | > 97 µg/mL | 2.11 | 0.8 | 0.038 µM | 42 µL/min/mg | 8.7 ×10⁻⁶ cm/s |
| O=C(NCCCN1CCCCCC1=O)c1cnc(-c2ccccc2)s1 | > 10 µM | Not Active | Not Active | – | – | – | – | – | – | – |
| O=C(CCCN1CCCCCC1)Nc1cnc(-c2cccc(F)c2)s1 | 1.42 µM | Not Active | Not Active | – | – | – | – | – | – | – |
| O=C(CCCN1CCCCCC1)Nc1cnc(-c2ccccc2)s1 | 1.83 µM | Not Active | Not Active | – | – | – | – | – | – | – |
| Cn1c(-c2ccccc2)cnc1C(=O)NCCCN1CCCCCC1 | 13 µM | Not Active | Not Active | – | – | – | – | – | – | – |
| O=C(NCCCN1CCCCCC1)c1cc(-c2ccccc2)cs1 | 2.48 µM | Not Active | Not Active | – | – | – | – | – | – | – |

Reference: ChEMBL document CHEMBL4814020, “Nonbisphosphonate inhibitors of Plasmodium falciparum FPPS/GGPPS” (Bioorg Med Chem Lett, 2021)
